# Test results published in paper PMC7033278, “A Nonpeptide Oxytocin Receptor Agonist for a Durable Relief of Inflammatory Pain” (Scientific Reports, 2020).
# Where two headings read alike, the source gives them in different places.
# What was measured:
# [1] = distribution and clearance after i.p. injection, LC-MS/MS; format: in vivo; conditions: ip, rat, 10 mg/kg i.p.
# Description: Brains from rat injected with 10 mg/kg (18.8 µmol/kg) i.p. of LIT-001 were homogenized with an Ultra Turrax instrument (Ika, Staufen, Germany) in 2 ml of H2O (Figs. 4, S4). The homogenates were then sonicated (3 times 10 s, 100 W) with a Vibra Cell apparatus (Sonics, Newtown, U.S.A.). Protein concentrations were determined using the Bradford method (Protein Assay, Bio-Rad, Marne-la-Coquette, France). 400 µl was mixed with 4 ml of ice cold acetonitrile (ACN) and let 30 min on ice. Samples were then centrifuged (20,000 × g, 30 min) at 4 °C. Supernatants were dried under vacuum and resuspended in 400 µl ACN 10%/H2O 89.9%/formic acid 0.1% (v/v/v) and a volume of 5 µl was injected on the LC-MS/MS. For CSF, plasma and urine, 200 µl of fluids were mixed with 1 ml of ice cold acetonitrile (ACN) and let 30 min on ice. Samples were then centrifuged (20,000 × g, 30 min) at 4 °C. Supernatants were dried under vacuum and suspended in 200 µl ACN 10%/H2O 89.9%/formic acid 0.1% (v/v/v) and a volume of 5 µl was injected on the LC-MS/MS.
# Analyses were performed on a Dionex Ultimate 3000 HPLC system (Thermo Scientific, San Jose, USA) coupled with a triple quadrupole Endura mass spectrometer (Thermo Scientific). The system was controlled by Xcalibur v.2.0 software (Thermo Electron). Samples were loaded onto an Accucore C18 RP-MS column (ref 17126–151030; 150 × 1 mm 2.6 μm, Thermo Scientific) heated at 40 °C. The presence of LIT-001 was studied using the multiple reaction monitoring mode (MRM). Elution was performed at a flow rate of 150 µl/min by applying a linear gradient of mobile phases A/B. Mobile phase A corresponded to ACN 1%/H2O 98.9%/formic acid 0.1% (v/v/v), whereas mobile phase B was ACN 99.9%/formic acid 0.1% (v/v). The gradient used is detailed in Fig. S4. […] Desolvation (nitrogen) sheath gas was set to 27 Arb and Aux gas was set to 9 Arb. The ion transfer tube was heated at 312 °C. Q1 and Q2 resolutions were set at 0.7 FWHM, whereas collision gas (CID, argon) was set to 2 mTorr. Identification of the compounds was based on precursor ion, selective fragment ions and retention times obtained for LIT-001. Selection of the monitored transitions and optimization of collision energy and RF Lens parameters were manually determined (see Fig. S4 for details). Qualification and quantification were performed in MRM mode. Quantification was obtained using Quan Browser software (Thermo Scientific). For tissues and fluids, LIT-001 was quantified using calibration curves of external standards of LIT-001 (125 fmol to 100 pmol/injection; Fig. S4) added to urine, plasma or brain extracts of naive rat and submitted to the same procedure described for respective fluids and tissue recovery. The amounts of LIT-001 measured in samples fit within the standard curve limits, with typical analytical ranges (the range of amounts that can be accurately quantified) from […].
# [2] = lipophilicity LogD7.4 (octanol/PBS); format: physicochemical; conditions: experimental, octanol/PBS pH 7.4
# Description: Solubility of LIT-001 was determined from solution of about 1 mg of compound in 500 μl of PBS at pH 7.4. (Figs. 1, S1) The solution was stirred at room temperature for 24 h and centrifuged at 15.000 × g for 5 min. The supernatant was diluted with a mixture of acetonitrile and water and analyzed by HPLC with a diode detector (Gilson; Kinetex 2.6 μm C18 100 A 50 × 4.6 mm column). […] The lipophilicity (LogD7.4) of LIT-001 was measured using […] of a stock solution diluted with different concentrations of octanol and PBS to cover a LogP range from −2 to + 4.5 in a final volume of 1 ml. After stirring for 1 h at room temperature (≈ 20 °C), the samples were centrifuged and the different phases were analyzed by HPLC (Gilson; diode detector, Kinetex 2.6 μ C18 100 A 50 × 4.6 mm column).
# [3] = tested on: V2 vasopressin receptor (V2R); parameters: method as in PMID 30199637; conditions: cited from earlier work
# [4] = biological target: T1, CYP 1A2 (Homo sapiens, UniProt P05177); assay: cytochrome inhibition, human liver microsomes; format: in vitro ADME
# T1 construct: phosphate buffer containing human liver microsomes (0.2 mg/ml); from tissue; host or cells: human liver microsomes
# T1 sequence (P05177 whole entry): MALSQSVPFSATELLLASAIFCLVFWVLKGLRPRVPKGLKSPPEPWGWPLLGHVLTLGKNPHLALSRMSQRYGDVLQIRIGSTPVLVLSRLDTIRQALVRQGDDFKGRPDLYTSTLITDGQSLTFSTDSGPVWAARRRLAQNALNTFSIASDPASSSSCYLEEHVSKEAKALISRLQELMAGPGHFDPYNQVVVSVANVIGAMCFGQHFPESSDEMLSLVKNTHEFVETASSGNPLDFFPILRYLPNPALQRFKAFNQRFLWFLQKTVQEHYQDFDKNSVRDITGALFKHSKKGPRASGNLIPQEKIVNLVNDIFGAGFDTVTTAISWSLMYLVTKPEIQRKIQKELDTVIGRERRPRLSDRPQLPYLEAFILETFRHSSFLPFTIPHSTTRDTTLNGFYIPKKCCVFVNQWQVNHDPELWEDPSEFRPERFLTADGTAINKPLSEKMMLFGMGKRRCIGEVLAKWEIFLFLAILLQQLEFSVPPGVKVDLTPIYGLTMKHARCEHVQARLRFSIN
# Description: (§1) Cytochrome inhibition by LIT-001 was studied as follows. A stock solution of LIT-001 at 10 mM in DMSO was prepared and stored at 4 °C. Solutions containing the cytochrome substrates and control inhibitors or LIT-001 were prepared. 2 μl of substrate-inhibitor solutions were mixed with 176 μl of phosphate buffer containing human liver microsomes (0.2 mg/ml), 1 mM of NADPH and 3 mM of MgCl2. Height concentrations were tested: 0.03; 0.1; 0.3; 1; 3; 10; 30 and 100 μM. The reaction was initiated by addition of the co-factor after 5 min of incubation at 37 °C. After one hour of incubation, 200 μl of acetonitrile were added to stop enzymatic reactions and solubilize the products. Different control inhibitors were used and supernatants were analyzed by LC-MS/MS (UHPLC separation; Shimadzu LC-MS 8030). • Furafylline (CYP 1A2 inhibitor): 0.03; 0.1; 0.3; 1; 3; 10; 30 and 100 μM • Sulfaphenazole (CYP 2C9 inhibitor): 0.03; 0.1; 0.3; 1; 3; 10; 30 and 100 μM • Tranylcypromine (CYP 2C19 inhibitor): 0.03; 0.1; 0.3; 1; 3; 10; 30 and 100 μM • Quinidine (CYP […] inhibitor): 0.003; 0.01; 0.1; 0.5; 1; 5; 10 and 50 μM • Kétoconazole (CYP 3A4 inhibitor): 0.003; 0.01; 0.1; 0.5; 1; 5; 10 and 50 μM
# [5] = biological target: T2, CYP 2C9 (Homo sapiens, UniProt P11712); assay: cytochrome inhibition, human liver microsomes; format: in vitro ADME; conditions: 0.03-100 μM
# T2 construct: phosphate buffer containing human liver microsomes (0.2 mg/ml); from tissue; host or cells: human liver microsomes
# T2 sequence (P11712 whole entry): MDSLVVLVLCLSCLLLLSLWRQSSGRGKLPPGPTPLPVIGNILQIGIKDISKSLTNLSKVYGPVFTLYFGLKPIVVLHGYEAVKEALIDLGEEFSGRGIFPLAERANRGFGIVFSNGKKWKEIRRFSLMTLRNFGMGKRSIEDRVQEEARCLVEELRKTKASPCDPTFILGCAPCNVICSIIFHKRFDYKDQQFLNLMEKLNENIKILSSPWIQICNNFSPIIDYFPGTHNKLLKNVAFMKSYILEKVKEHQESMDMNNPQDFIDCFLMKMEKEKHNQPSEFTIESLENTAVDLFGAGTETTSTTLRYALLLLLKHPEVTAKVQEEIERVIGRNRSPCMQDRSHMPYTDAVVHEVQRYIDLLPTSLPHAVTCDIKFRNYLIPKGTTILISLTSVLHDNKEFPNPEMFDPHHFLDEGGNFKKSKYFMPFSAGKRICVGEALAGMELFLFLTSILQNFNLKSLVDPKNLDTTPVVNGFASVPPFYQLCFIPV
# Description: as §1
# [6] = biological target: T3, CYP 2C19 (Homo sapiens, UniProt P33261); assay: cytochrome inhibition, human liver microsomes; format: in vitro ADME
# T3 construct: phosphate buffer containing human liver microsomes (0.2 mg/ml); from tissue; host or cells: human liver microsomes
# T3 sequence (P33261 whole entry): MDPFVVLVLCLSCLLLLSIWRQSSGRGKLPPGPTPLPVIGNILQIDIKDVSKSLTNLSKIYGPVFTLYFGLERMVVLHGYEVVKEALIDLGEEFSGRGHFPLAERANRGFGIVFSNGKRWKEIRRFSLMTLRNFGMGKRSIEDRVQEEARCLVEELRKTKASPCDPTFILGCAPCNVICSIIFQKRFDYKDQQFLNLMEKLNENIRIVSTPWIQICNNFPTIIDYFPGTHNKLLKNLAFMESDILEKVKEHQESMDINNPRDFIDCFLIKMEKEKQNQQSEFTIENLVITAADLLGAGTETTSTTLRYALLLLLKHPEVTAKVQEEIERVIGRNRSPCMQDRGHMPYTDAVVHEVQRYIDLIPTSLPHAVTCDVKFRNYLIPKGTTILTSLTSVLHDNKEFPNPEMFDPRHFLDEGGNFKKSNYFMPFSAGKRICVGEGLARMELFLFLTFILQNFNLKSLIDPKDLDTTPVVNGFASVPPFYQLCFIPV
# Description: as §1
# [7] = biological target: T4, CYP 2D6 (Homo sapiens, UniProt P10635); assay: cytochrome inhibition, human liver microsomes; format: in vitro ADME; conditions: 0.03-100 μM
# T4 construct: phosphate buffer containing human liver microsomes (0.2 mg/ml); from tissue; host or cells: human liver microsomes
# T4 sequence (P10635 whole entry): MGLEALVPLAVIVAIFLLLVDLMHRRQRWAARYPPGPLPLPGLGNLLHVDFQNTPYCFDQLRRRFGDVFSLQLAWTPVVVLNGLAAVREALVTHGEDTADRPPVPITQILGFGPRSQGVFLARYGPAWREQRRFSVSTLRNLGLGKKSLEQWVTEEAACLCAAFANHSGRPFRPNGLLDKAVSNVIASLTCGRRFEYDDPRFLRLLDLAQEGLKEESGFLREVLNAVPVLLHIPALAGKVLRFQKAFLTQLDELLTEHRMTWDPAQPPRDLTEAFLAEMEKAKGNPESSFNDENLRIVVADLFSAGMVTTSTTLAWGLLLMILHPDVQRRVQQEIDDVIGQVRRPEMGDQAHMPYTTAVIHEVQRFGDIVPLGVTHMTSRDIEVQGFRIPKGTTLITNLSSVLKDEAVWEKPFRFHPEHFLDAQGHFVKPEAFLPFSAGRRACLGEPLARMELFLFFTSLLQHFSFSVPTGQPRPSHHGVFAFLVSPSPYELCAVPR
# Description: as §1
# [8] = biological target: T5, CYP 3A4 (Homo sapiens, UniProt P08684); assay: cytochrome inhibition, human liver microsomes; format: in vitro ADME
# T5 construct: phosphate buffer containing human liver microsomes (0.2 mg/ml); from tissue; host or cells: human liver microsomes
# T5 sequence (P08684 whole entry): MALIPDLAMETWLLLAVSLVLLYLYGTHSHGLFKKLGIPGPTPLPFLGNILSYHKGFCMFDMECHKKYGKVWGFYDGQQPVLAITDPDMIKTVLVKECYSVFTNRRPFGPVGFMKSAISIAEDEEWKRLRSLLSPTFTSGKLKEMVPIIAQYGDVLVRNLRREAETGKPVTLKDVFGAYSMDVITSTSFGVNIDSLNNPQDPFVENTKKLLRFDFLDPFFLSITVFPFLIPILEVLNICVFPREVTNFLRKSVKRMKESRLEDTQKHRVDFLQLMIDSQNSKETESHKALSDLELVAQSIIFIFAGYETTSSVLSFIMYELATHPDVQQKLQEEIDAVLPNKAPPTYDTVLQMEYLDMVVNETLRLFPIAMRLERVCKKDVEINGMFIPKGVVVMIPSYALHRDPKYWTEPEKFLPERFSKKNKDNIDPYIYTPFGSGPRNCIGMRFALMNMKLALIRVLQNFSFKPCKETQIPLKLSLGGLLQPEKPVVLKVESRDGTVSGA
# Description: as §1
# [9] = CSF, read-out: concentration in CSF
# [10] = brain, read-out: concentration in brain
# [11] = plasma, read-out: concentration in plasma
# [12] = urine, read-out: concentration in urine
compound,measurement,setting,value
Cc1cc(C(=O)N2Cc3cnn(C)c3Nc3ccccc32)ccc1CNC(=O)N1CCC[C@H]1C(=S)N(C)C [LIT-001],concentration at 60 min,[1]; [9],0.0074 ± 0.0044 µM
same,concentration at 300 min,[1]; [9],0.0015 ± 0.0011 µM
same,concentration at 60 min,[1]; [10],0.0016 ± 0.0008 µM
same,concentration at 300 min,[1]; [10],0.0006 ± 0.0004 µM
same,concentration at 30 min,"[1]; plasma, 30 min (highest)",0.65 ± 0.2 µM
same,concentration at 60 min,[1]; [11],0.626 ± 0.112 µM
same,concentration at 300 min,[1]; [11],0.0952 ± 0.0365 µM
same,concentration at 60 min,[1]; [12],52.5 ± 14.2 µM
same,concentration at 300 min,[1]; [12],189 ± 8.47 µM
same,logD,[2],2 ± 0.3
same,V2R agonism in functional assays,[3],potent V2R agonist
same,IC50,[4],51 µM
same,interaction with CYP 2C9,[5],did not interact
same,IC50,[6],21 µM
same,interaction with CYP 2D6,[7],did not interact
same,IC50,[8],11 µM
